Like-named read-outs stand apart in the source and are kept apart here. Values belong to the molecule of their own block, whether it stands above or below them.
Assays:
[1] = Gd complexes biodistribution studies (ICP-MS); type: in vivo, BALB/c mice; conditions: 0.025 mmol/kg i.v.; for Gd biodistribution / elimination profile: 5-360 min post injection
Text: Most commercially available Gd(III)-based MRI contrast agents are excreted rapidly and exclusively through the renal pathway. One of the few exceptions is an acyclic compound, Gd-EOB-DTPA, which has a mixed clearance (50% renal, 50% biliary) and is used for imaging of the liver and biliary system. Gd-BOPTA and MS-325 have predominantly renal elimination with <10% elimination through the biliary system. […] We illustrated with our studies that there is a significant variation in the biodistribution profiles despite the small structural differences of the chiral substituents (Supplementary Fig. 20). Gd biodistribution in BALB/c mice was measured by ICP-MS at 5, 15, 30, 60, 180 and 360 min following injection. […] Low levels of Gd(III) are present at 6 h post injection. […] The specific and unusual localisation of [GdL2]^− in the liver makes it a potential hepatobiliary-specific MRI contrast agent.
(§1) Gd concentrations were determined using an Agilent 8800-QQQ ICP-MS system. All samples were diluted with 0.1% Triton X-100 in 5% nitric acid. Lutetium internal standard was steadily introduced to the ICP-MS from an external source during the analysis. A linear calibration curve for each metal ranging from 0.1 ppb to 200 ppb was generated daily for the quantification.
Complexes [GdL1]^−, [GdL2]^− and [GdL5]^− were prepared by dissolving in saline solution, while [GdDOTA]^− (Dotarem) was diluted in saline solution. Eight-week-old male BALB/c mice (purchased from BioLASCO, Taiwan) each weighing approximately 25 g were administered with a single dose of 0.025 mmol/kg compound ([GdL1]^−, [GdL2]^−, [GdDOTA]^− and [GdL5]^−; 3 mice per compound per time point) in a 100 μl volume via lateral tail vein injection. The mice were then euthanized, and their blood collected by cardiac puncture at each time point (5, 15, 30, 60, 180 or 360 min post injection). A control group of 4 mice was treated with saline and killed at time point 0. The liver, lung, heart, kidneys, spleen and brain were removed from the animals and weighed. Gd content in tissue and blood samples was quantified via ICP-MS analysis. All experiments were performed in accordance with the NIH Guide for the Care and Use of Laboratory Animals and approved by the Institutional Animal Care and Use Committee of Massachusetts General Hospital or by the Department of Health of the Hong Kong Government and the Animal Subjects Ethics Sub-Committee of Hong Kong Polytechnic University.

[2] = 17O NMR water exchange (residence time of water co-ligand); type: physicochemical; conditions: 17O NMR at 11.7T; for τM^310K, mean residence time of the water co-ligand at 310 K: q = 1 assumed
Protocol: (§2) Relaxivity measurements were performed on a Bruker mq60 Minispec at 1.41T and 37 °C. Longitudinal (T1) relaxation times were measured using an inversion recovery experiment with 10 inversion times of duration ranging between 0.05 × T1 and 5 × T1. Transverse (T2) relaxation times were measured using a CPMG pulse sequence. Relaxivity (r1, r2) was determined from the slope of a plot of 1/T1,2 vs [Gd] for at least 4 concentrations of Gd(III) (data shown in Supplementary Figs. 93–110). The T2 relaxation times of ^17O at 11.7T were estimated from the full-width at half-height of the H2^17O resonance at temperatures ranging from 278 to 368K. Reduced relaxation rates (1/T2r) were calculated by taking the difference of 1/T2 measured in the presence and absence of Gd(III) and dividing by the mole fraction of coordinated water molecules, assuming q = 1. […] However, at the high magnetic field used, and because of the very-fast water exchange rates observed, there was negligible contribution of T1e, and the data were refit to a two-parameter model using the water exchange rate at 310K (τM) and enthalpy of activation for water exchange (ΔH^‡) as adjustable parameters. The Gd-O hyperfine coupling constant, A/ħ, was assumed to be -3.8 × 10^6 rad s^−1 [57], [58]. Samples were prepared in neat H2O adjusted and enriched with a small amount of H2^17O.

[3] = Relaxivity measurements at 1.41T and 37 °C; type: physicochemical
Protocol: as §2

[4] = Kinetic stability of Gd complexes monitored by RP-HPLC (acid, base, DTPA, DOTA, ZnCl2); type: physicochemical
Text: The kinetic stability of GBCAs, which reflects the dissociation of the Gd ions from its chelate is used to predict the stability in vivo[10]. The proton-assisted dissociation and direct attack of the endogenous ions are regarded as two main pathways that induced the dissociation of the chelates. The inertness of our Gd(III) complexes was maintained up to 7 days after addition of 1000 equivalents of a competitive ligand, DTPA (Supplementary Fig. 7 & 8). […] The harshest condition tried was setting the complexes of [GdL2A]^−, [GdL2B]^− and [GdDOTA]^− in 1N HCl (Fig. 5, Supplementary Figs. 13 - 15).
Fig. […] Error bars for [GdL2A]^- and [GdL2B]^- refer to the standard error of mean (S.E.M.), statistical data fitting analysis (n = 3; s.e.m.)

[5] = In vivo dynamic T1-weighted MR imaging at 4.7T; parameters: species or system C57/Bl6 mice; conditions: 0.1 mmol per kg i.v., 4.7 tesla, n = 1
Protocol: Dynamic T1-weighted MR imaging at 4.7 tesla was performed with C57/Bl6 mice before, during, and after 0.1 mmol per kg injection of each compound (Fig. 7).
(§3) Imaging was performed at 4.7T using a small-bore animal scanner (Bruker Biospec). Pilot dynamic MRI studies were performed with [GdL1]^−, [GdL2A]^−, [GdL2B]^− and [GdL5]^−; n = 1 per compound. Six to eight weeks male C57/Bl6 mice were anaesthetised with isoflurane (1%–2%) and placed in a specially designed cradle with body temperature maintained at 37 °C. The tail vein was catherised for intravenous delivery of the contrast agent while the animal was positioned in the scanner. A pneumatic pillow was placed on the mouse to enable respiratory monitoring (SA Instruments), and the animal’s body temperature was maintained with warm air. The imaging protocol utilised a three-dimensional fast low angle shot (3D FLASH) with a […] flip angle, 9.00 ms repetition rate, 2.39 ms echo time, 4.8 cm × 2.4 cm × 2.4 cm field of view with a 0.3 mm isotropic resolution. Images were acquired with either 2 or 8 averages giving an acquisition time of 2 min or 8 min, respectively. Baseline images were acquired with both 2 and 8 averages, then the Gd complex (0.1 mmol per kg) was injected intravenously and the sequence with 2 averages was repeated for a period of 10 min to monitor blood clearance. At 10, 30, 45, 60, 75 and 90 min after probe injection, the sequence with 8 averages was repeated to monitor the clearance of contrast from the liver and kidneys. After imaging was performed, the mouse was removed from the scanner and euthanized at 2 h post injection and the tissues were harvested for Gd quantification by ICP-MS.

[6] = Ex vivo biodistribution 2 h post injection after MRI study (ICP-MS); type: in vivo, C57/Bl6 mice; conditions: 0.1 mmol per kg i.v.
Protocol: as §1, §3

[7] = cited from earlier work
[8] = cited from earlier work; for elimination through the biliary system: predominantly renal elimination

- Gd biodistribution / elimination profile [1]: mainly distributed in the liver
- Gd(III) detected after 60 min (liver retention) ([1]; ICP-MS): negligible amounts
SMILES: CC[C@H]1CN(CC(=O)[O-])[C@@H](CC)CN(CC(=O)[O-])[C@@H](CC)CN(CC(=O)[O-])[C@@H](CC)CN1CC(=O)[O-].[Gd+3] [[GdL2]^−]

- τM^310K, mean residence time of the water co-ligand at 310 K [2]: 1.1 ± 0.1 ns
- r1 relaxivity ([3]; 4.5% w/v HSA (1.4T)): 4.8 mM⁻¹ s⁻¹
- r1 relaxivity ([3]; Human Plasma (1.4T)): 4.9 mM⁻¹ s⁻¹
- r1 relaxivity ([3]; Water (1.4T)): 3.9 mM⁻¹ s⁻¹
- decomplexation ([4]; 0.1N NaOH, over 10 days): negligible decomplexation
- decomplexation ([4]; 1N HCl, room temperature, after 487 h): only minimal decomplexation
- decomplexation ([4]; 1N HNO3, over 10 days): negligible decomplexation
- stability and interconversion ([4]; one equivalent of DOTA ligand in 1N HCl): no interconversion was observed
- Gd concentration in gall bladder [6]: 1066 nmol Gd per gram tissue
- Gd concentration in blood ([6]; listed as GdL2B): 0.60 nmol Gd per gram tissue
- Gd concentration in gall bladder ([6]; listed as GdL2B): 1066.22 nmol Gd per gram tissue
- Gd concentration in heart ([6]; listed as GdL2B): 3.09 nmol Gd per gram tissue
- Gd concentration in intestines ([6]; listed as GdL2B): 47.07 nmol Gd per gram tissue
- Gd concentration in kidney ([6]; listed as GdL2B): 7.42 nmol Gd per gram tissue
- Gd concentration in liver ([6]; listed as GdL2B): 1.12 nmol Gd per gram tissue
- Gd concentration in lung ([6]; listed as GdL2B): 2.63 nmol Gd per gram tissue
- Gd concentration in muscle ([6]; listed as GdL2B): 5.43 nmol Gd per gram tissue
- Gd concentration in spleen ([6]; listed as GdL2B): 4.82 nmol Gd per gram tissue
- Gd concentration in stomach ([6]; listed as GdL2B): 1.05 nmol Gd per gram tissue
- Gd concentration in tail ([6]; listed as GdL2B): 2.64 nmol Gd per gram tissue
SMILES: CC[C@H]1CN(CC(=O)[O-])[C@@H](CC)CN(CC(=O)[O-])[C@@H](CC)CN(CC(=O)[O-])[C@@H](CC)CN1CC(=O)[O-].[Gd+3] [[GdL2B]^−]
- MR enhancement of liver and gall bladder [5]: profound enhancement of the liver and gall bladder
- MR signal in the kidneys over time / at 60 min post injection [5]: approached baseline

SMILES: O=C([O-])CN1CCN(CC(=O)[O-])CCN(CC(=O)[O-])[C@@H](Cc2ccc([N+](=O)[O-])cc2)CN(CC(=O)[O-])CC1.[Gd+3] [Gd-NB-DOTA]
- ΔH^‡ ([7]; Mix of isomers): 35.5 kJ/mol
- τM^310K ([7]; Mix of isomers): 111 ns

- r1 relaxivity ([3]; 4.5% w/v HSA (1.4T)): 4.1 mM⁻¹ s⁻¹
- r1 relaxivity ([3]; Human Plasma (1.4T)): 4.0 mM⁻¹ s⁻¹
- r1 relaxivity ([3]; Water (1.4T)): 3.2 mM⁻¹ s⁻¹
- half-life of the complex ([4]; 1N HCl, room temperature): < 25 h
- half-life of the complex ([4]; 100 equivalents of zinc chloride at 50 °C): ~ 100 h
- Gd(III) present at 6 h post injection ([1]; ICP-MS): Low levels
SMILES: O=C([O-])CN1CCN(CC(=O)[O-])CCN(CC(=O)[O-])CCN(CC(=O)[O-])CC1.[Gd+3] [[GdDOTA]^−, reference compound]
- Gd biodistribution / elimination profile [1]: rapid elimination from the body via the kidneys
- ΔH^‡ ([7]; SAP isomer): 58.1 ± 2.5 kJ/mol
- τM^310K ([7]; SAP isomer): 141 ns
- ΔH^‡ ([7]; TSAP isomer): 41.9 ± 3.1 kJ/mol
- τM^310K ([7]; TSAP isomer): 27 ns

SMILES: C[C@@H](C(=O)[O-])N1CCN([C@@H](C)C(=O)[O-])CCN([C@@H](C)C(=O)[O-])[C@@H](Cc2ccc([N+](=O)[O-])cc2)CN([C@@H](C)C(=O)[O-])CC1.[Gd+3] [Gd-NB-DOTMA(S-SSSS)]
- ΔH^‡ ([7]; S-SSSS = SAP, S-RRR = TSAP): 26.4 kJ/mol
- τM^310K ([7]; S-SSSS = SAP, S-RRR = TSAP): 77 ns

SMILES: O=C([O-])CN(CCN(CC(=O)[O-])CC(=O)[O-])CCN(CC(=O)[O-])C(COCc1ccccc1)C(=O)[O-].[Gd+3] (stereo not shown) [Gd-BOPTA]
- elimination through the biliary system [8]: < 10%

SMILES: O=C([O-])CN(CCN(CC(=O)[O-])C[C@H](COP(=O)([O-])OC1CCC(c2ccccc2)(c2ccccc2)CC1)N(CC(=O)[O-])CC(=O)[O-])CC(=O)[O-].[Gd+3].[H+].[H+].[H+] [MS-325]
- blood half-life [8]: unusually long
- serum albumin binding [8]: extensive serum albumin binding
- elimination through the biliary system [8]: < 10%

- ΔH^‡, enthalpy change of activation of water exchange [2]: 33 ± 2.1 kJ/mol
- τM^310K, mean residence time of the water co-ligand at 310 K [2]: 8.1 ± 0.4 ns
- r1 relaxivity ([3]; 4.5% w/v HSA (1.4T)): 4.5 mM⁻¹ s⁻¹
- r1 relaxivity ([3]; Human Plasma (1.4T)): 4.6 mM⁻¹ s⁻¹
- r1 relaxivity ([3]; Water (1.4T)): 3.9 mM⁻¹ s⁻¹
SMILES: CC[C@@H]1CN(CC(=O)[O-])[C@H](CC)CN(CC(=O)[O-])[C@H](CC)CN(CC(=O)[O-])[C@H](CC)CN1CC(=O)[O-].[Gd+3] [[Gd(R)L2A]^−]

SMILES: CCOc1ccc(C[C@@H](CN(CCN(CC(=O)[O-])CC(=O)[O-])CC(=O)[O-])N(CC(=O)[O-])CC(=O)[O-])cc1.[Gd+3].[Na+].[Na+] [Gd-EOB-DTPA]
- biliary clearance share ([8]; mixed clearance): 50%
- renal clearance share ([8]; mixed clearance): 50%

SMILES: C[C@H](C(=O)[O-])N1CCN([C@H](C)C(=O)[O-])CCN([C@H](C)C(=O)[O-])[C@@H](Cc2ccc([N+](=O)[O-])cc2)CN([C@H](C)C(=O)[O-])CC1.[Gd+3] [Gd-NB-DOTMA(S-RRR)]
- ΔH^‡ ([7]; S-SSSS = SAP, S-RRR = TSAP): 27.7 kJ/mol
- τM^310K ([7]; S-SSSS = SAP, S-RRR = TSAP): 9.4 ns

- ΔH^‡, enthalpy change of activation of water exchange [2]: 12 ± 1.7 kJ/mol
- τM^310K, mean residence time of the water co-ligand at 310 K [2]: 2.9 ± 0.1 ns
- r1 relaxivity ([3]; 4.5% w/v HSA (1.4T)): 4.8 mM⁻¹ s⁻¹
- r1 relaxivity ([3]; Human Plasma (1.4T)): 4.9 mM⁻¹ s⁻¹
- r1 relaxivity ([3]; Water (1.4T)): 3.9 mM⁻¹ s⁻¹
SMILES: CC[C@@H]1CN(CC(=O)[O-])[C@H](CC)CN(CC(=O)[O-])[C@H](CC)CN(CC(=O)[O-])[C@H](CC)CN1CC(=O)[O-].[Gd+3] [[Gd(R)L2B]^−]

SMILES: C[C@H](C(=O)[O-])N1CCN([C@H](C)C(=O)[O-])CCN([C@H](C)C(=O)[O-])CCN([C@H](C)C(=O)[O-])CC1.[Gd+3] [Gd-DOTMA]
- ΔH^‡ ([7]; SAP isomer): 53.4 ± 2.9 kJ/mol
- τM^310K ([7]; SAP isomer): 156 ns
- ΔH^‡ ([7]; TSAP isomer): 40.3 ± 2.2 kJ/mol
- τM^310K ([7]; TSAP isomer): 26 ns
